{"source": "patent US20210355421A1", "about": "“DEVICES AND METHODS FOR PRODUCTION OF CELL AGGREGATES” (priority 2007, published 2021)", "key": {"[1]": {"test_system": "hESC", "assay": "forced aggregation of hESC with or without ROCK inhibitor Y-27632", "assay_type": "cell-based, human", "procedure": "• 1. […] The precise degree of pre-differentiation that is optimal will vary with the cell line in question, exact maintenance techniques, etc. If EB coherence is still insufficient after treatment as above, pre-differentiation can be started earlier (i.e the duration increased) or (if using BMPs), BMP concentration can be increased. […] Prepare low-adsorbance well plates: • a) dispense 40 μL (for 96-well plates) or 25 μL (for 384-well plates) of 5% Pluronic acid in PBS into the plates • b) incubate 30 minutes at room temperature • c) remove pluronic acid solution by pipetting or by inverted centrifugation in the device described and illustrated in FIG. 1 or 2 for 1 minute at 240×g • 3. Prepare a single-cell suspension by treating the hESC culture with TrypIE for 5 minutes, and washing the cells off with X-Vivo10 • 4. Count cells, spin down and re-suspend to 1 million cells/mL in X-Vivo or other medium of interest. Cells may all derive from a single culture, or cells from different sources may be combined. • 5. […] In the absence of both, no aggregates were formed (N.D.—size not determined). […]"}, "[2]": {"test_system": "hESC", "assay": "aggregate formation from hESC cultured on Matrigel after BMP pre-differentiation", "assay_type": "cell-based, human", "conditions": "50 ng/mL BMP4 pre-differentiation, control population did not form aggregates", "protocol": "The precise degree of pre-differentiation that is optimal will vary with the cell line in question, exact maintenance techniques, etc. […] Prepare low-adsorbance well plates: • a) dispense 40 μL (for 96-well plates) or 25 μL (for 384-well plates) of 5% Pluronic acid in PBS into the plates • b) incubate 30 minutes at room temperature • c) remove pluronic acid solution by pipetting or by inverted centrifugation in the device described and illustrated in FIG. 1 or 2 for 1 minute at 240×g • 3. Prepare a single-cell suspension by treating the hESC culture with TrypIE for 5 minutes, and washing the cells off with X-Vivo10 • 4. Count cells, spin down and re-suspend to 1 million cells/mL in X-Vivo or other medium of interest. Cells may all derive from a single culture, or cells from different sources may be combined. • 5. […]"}}, "note": "Entries after “also recorded” stand apart in the source; their conditions may differ.", "data": [{"compound": "C[C@@H](N)[C@H]1CC[C@H](C(=O)Nc2ccncc2)CC1", "note": "[Y-27632]", "values": [{"measurement": "aggregate size and symmetry", "setting": "[1]; 10 μM Y-27632, hESC cultured on Matrigel, 2,000 cells per well, without or with 48 hours pre-differentiation in serum-containing medium", "result": "substantially increased aggregate size and symmetry; also recorded: size and symmetry of aggregates are improved"}, {"measurement": "SISO-aggregate formation / aggregate stability", "setting": "[1]; 10 μM Y-27632 added to cell suspension immediately prior to dispensing, hESC on Matrigel in MEF-conditioned medium, without or with pre-differentiation", "result": "sizeable aggregates resulted"}]}, {"compound": "BMP4: bone morphogenetic protein used as growth factor for pre-differentiation", "values": [{"measurement": "stable aggregate formation after BMP4 pre-differentiation", "setting": "[2]", "result": "Aggregates formed from the pre-differentiated population"}]}]}
